Assay results: US20060275321A1, “Polypeptide antagonists of HIV-1 Tat protein” (Phoenix Pharmaceuticals, Inc., priority 2005, published 2006)
Bridges are numbered along the chain shown (N, C = ends). Where no end group is shown, it is not given here. The star is where a group is joined. Acm = CC(=O)NC*

Test system: dissociate cultured cortical neurons
Test: Mobilization of intracellular Ca2+ in dissociate cultured cortical neurons (Fura-2 AM fluorescence)
Type: cell-based, rat
Conditions: dissociate and cultured cortical neurons of newborn Sprague-Dawley rats, value ± spread
Description: Neurons can be isolated from cerebral cortex according to the protocols for postnatal dissociated nuerons as disclosed for example by Huettner, J. E. and Baughman, R. W., Primary Culture of Identified Neurons From the Visual Cortex of Postnatal Rats, Journal of Neurosciences 6; 3044-3060 (1986); Brewer, G. J., Isolation and Culture of Adult Rat Hippocampal Neurons, Journal of Neuroscience Methods, 71:143-155 (1997); and Brailoiu et al., NAADP Potentiates Neurite Outgrowth, Journal of Biological Chemistry (in press), each hereby incorporated by reference. Newborn Sprague-Dawley rates (about 1 day to about 4 days old) were killed by cervical dislocation. Cerebral cortex was removed and quickly immersed in ice-cold phosphate buffer solution. After removal of meninges, tissue was minced into about 1-millimeter blocks, incubated for about 45 minutes at 37° C. in Hanks balanced salt solution without Ca^2+ and Mg^2+ (Invitrogen, 1600 Faraday Avenue, Carlsbad, Calif. 92008) and supplemented with about 200 ug/mL penicillin, 0.1% EDTA and papain 0.15 mg/mL (Sigma-Aldrich, St. Louis, Mo.). In accordance with the procedure disclosed by Brewer, the tissue can be further dissociated by gentle mechanical trituration. […]

30-86 Cys30Acm, Cys34Acm (Cys31-Cys37): HIV-1 Tat residues 30-86, Cys-Acm at 30 and 34, disulfide bridge Cys31-Cys37 (C(Acm)CFHC(Acm)QVCFITKALGISYGRKKRRQRRRAHQNSQTHQASLSKQPTSQPRGDPTGPKE; disulfide 2-8)
[Ca^2+] response: No Response
